Series [1] relates to Plasmodium falciparum. As to the kind of experiment: In vitro antimalarial activity for Plasmodium falciparum NF54. The class given is functional.
The subject of series [2] is Mus musculus. As to the kind of experiment: Antimalarial activity of compound against multidrug-resistant strain of Plasmodium yoelii in Swiss mice (Mus musculus) at a dose of 100 mg/kg/day (percent suppression on day 4). The class given is functional.
Series [3] relates to Mus musculus. Kind of series: Antimalarial activity of compound against multidrug-resistant strain of Plasmodium yoelii in 5 Swiss mice (Mus musculus) treated at a dose of 100 mg/kg/day. It counts as functional.
Series [4] deals with Mus musculus. Kind of series: Antimalarial activity of compound against multidrug-resistant strain of Plasmodium yoelii in Swiss mice (Mus musculus) at a dose of 50 mg/kg/day (percent suppression on day 4). It counts as functional.
Series [5] has as its system Mus musculus. Kind of series: Antimalarial activity of compound against multidrug-resistant strain of Plasmodium yoelii in 5 Swiss mice (Mus musculus) treated at a dose of 50 mg/kg/day. The class given is functional.
Series [6] concerns Mus musculus. As to the kind of experiment: Antimalarial activity of compound against multidrug-resistant strain of Plasmodium yoelii in 5 Swiss mice (Mus musculus) at a dose of 50 mg/kg/day. It counts as functional.
The test system of series [7] is Mus musculus. As to the kind of experiment: Antimalarial activity of compound against multidrug-resistant strain of Plasmodium yoelii in Swiss mice (Mus musculus) at a dose of 50 mg/kg/day (percent suppression on day 4-nil). It counts as functional, organism-based.
Series [8] concerns Mus musculus. As to the kind of experiment: Antimalarial activity of compound against multidrug-resistant strain of Plasmodium yoelii in 5 Swiss mice (Mus musculus) at a dose of 100 mg/kg/day. The class given is functional.
The subject of series [9] is Mus musculus. As to the kind of experiment: Mean survival time of animals was calculated after administering a dose of 50 mg/kg/day during 28-day observation period. The class given is functional.
In series [10] the test system is Mus musculus. As to the kind of experiment: Mean survival time of animals was calculated after administering a dose of 12.5 mg/kg/day during 28-day observation period. The class given is functional.
Series [11] relates to Mus musculus. Kind of series: Antimalarial activity of compound against multidrug-resistant strain of Plasmodium yoelii in Swiss mice (Mus musculus) at a dose of 12.5 mg/kg/day (percent suppression on day 4). The class given is functional.
Series [12] concerns Mus musculus. As to the kind of experiment: Antimalarial activity of compound against multidrug-resistant strain of Plasmodium yoelii in Swiss mice (Mus musculus) at a dose of 25 mg/kg/day (percent suppression on day 4). It counts as functional.
The test system of series [13] is Mus musculus. Kind of series: Number of mice alive on day 28 treated with a dose of 12.5 mg/kg/day. It counts as functional.
The subject of series [14] is Mus musculus. As to the kind of experiment: Mean survival time of animals was calculated after administering a dose of 25 mg/kg/day during 28-day observation period. The class given is functional.
The subject of series [15] is Mus musculus. As to the kind of experiment: Mean survival time of animals was calculated after administering a dose of 6.25 mg/Kg/day during 28-day observation period. It counts as functional.
Series [16] deals with Mus musculus. As to the kind of experiment: Number of mice alive on day 28 treated with a dose of 25 mg/kg/day. It counts as functional.
Series [17] relates to Mus musculus. As to the kind of experiment: Antimalarial activity of compound against multidrug-resistant strain of Plasmodium yoelii in 5 Swiss mice (Mus musculus) treated at a dose of 12.5 mg/Kg/day. It counts as functional.
In series [18] the test system is Mus musculus. As to the kind of experiment: Antimalarial activity of compound against multidrug-resistant strain of Plasmodium yoelii in 5 Swiss mice (Mus musculus) treated at a dose of 6.25 mg/Kg/day. It counts as functional.
Series [19] deals with Mus musculus. Kind of series: Number of mice alive on day 28 treated with a dose of 50 mg/kg/day. It counts as functional.
A short description of series [20]: Antimalarial activity of compound against multidrug-resistant strain of Plasmodium yoelii in Swiss mice (Mus musculus) at a dose of 100 mg/kg/day (percent suppression on day 4); toxic. Conditions: in vivo. It counts as organism-based.
The test system of series [21] is Mus musculus. Kind of series: In vivo antimalarial activity of compound against multidrug-resistant strain of Plasmodium yoelii in 5 Swiss mice (Mus musculus) treated at a dose of 25 mg/kg/day. It counts as functional.
The subject of series [22] is Mus musculus. Kind of series: Antimalarial activity of compound against multidrug-resistant strain of Plasmodium yoelii in Swiss mice (Mus musculus) at a dose of 6.25 mg/kg/day (percent suppression on day 4). It counts as functional.
Series [23] relates to Mus musculus. As to the kind of experiment: Number of mice alive on day 28 treated with a dose of 6.25 mg/kg/day. The class given is functional.

Each structure is given as a SMILES string. In brackets after ≈: the same amount, converted by molar mass.

Usually MIC stands for the smallest concentration in the dilution series that meets the test's criterion for growth inhibition. Low readings indicate a more susceptible organism, high ones a less susceptible organism. In the case of `[C-]#[N+][C@H]1CC[C@@]2(C)[C@@H](CC[C@@H]3[C@@H]2CC[C@]2(C)[C@@H]([C@H](C)CCCC(C)C)CC[C@@H]32)C1`, the MIC in series [1] is above 50 µg/mL.

Compound `CCN(CC)CCCC(C)Nc1ccnc2cc(Cl)ccc12` (configuration not stated) [CHLOROQUINE] registered an MIC in [1] of 0.04 µg/mL (≈ 0.125 µM).

Take `[C-]#[N+]c1ccc(-c2ccccc2)cc1`: the Supression in series [2] was 62.79%; in series [4], 32.98%. Moreover, the “No. of mice cured” value in series [3] and in series [5] was 0 each time. In addition, the MIC in series [1] is 1 µg/mL (≈ 5.58 µM).

For `[C-]#[N+]C1C[C@H](C)CC[C@H]1C(C)C` (some centres not stated), it took 50 µg/mL (≈ 303 µM) to inhibit growth in series [1] (MIC).

As for `[C-]#[N+]c1cccc2ccccc12`, the MIC in series [1] is 50 µg/mL (≈ 326 µM).

With `[C-]#[N+]c1ccc2c(c1)Cc1ccccc1-2`, the figures for the Supression in series [2] and in [4] were 21.35% and 6.34%, respectively. The “No. of mice cured” value in series [3] and in [5] was 0 each time. For the same compound, inhibition of growth in series [1] (MIC) required 2 µg/mL (≈ 10.5 µM).

For `[C-]#[N+]c1ccc(C(C)=O)cc1`, the Supression in [2] is reported as 35.72%; in [7], “Nil”. Further, the “No. of mice cured” value in series [6] and in [8] was 0 throughout. Moreover, in series [1], the lowest concentration to inhibit growth (MIC) was 2 µg/mL (≈ 13.8 µM).

Turning to `[C-]#[N+]c1ccc(Br)cc1Br`, in series [1], the MIC was 50 µg/mL (≈ 192 µM).

With `[C-]#[N+]C12CC3CC(CC(C3)C1)C2`, the MST was 16.3 in series [9], 11.8 in series [10], 12.8 in series [14] and 8.2 in [15]. Also, the “No. of mice cured” value is given as 0 in series [3]; 2 in [5]; 0 in [17]; 0 in series [18]; 0 in [21]. Further, the Supression is 73% in [11]; 100% in series [4]; 99.8% in series [12]; “Toxic” in [20]; 19% in series [22]. Also, the Survival in series [13] is on record as 0; in [16], 1; in [19], 2; in series [23], 0. In series [1], the MIC was found to be 0.4 µg/mL (≈ 2.48 µM).

`[C-]#[N+]C1CC[C@@]2(C)[C@@H](CC[C@@H]3[C@@H]2CC[C@]2(C)[C@@H]([C@H](C)CCCC(C)C)CC[C@@H]32)C1` (some centres not stated) yielded an MIC in series [1] above 50 µg/mL.

As for `[C-]#[N+]c1ccc2ccccc2c1`, in series [1], the MIC was found to be 50 µg/mL (≈ 326 µM).

With `C[C@@H]1CC[C@H]2[C@@H](C)C(=O)O[C@@H]3O[C@@]4(C)CC[C@@H]1[C@]32OO4` [ARTEMISININ], the MIC in series [1] amounted to 0.03 µg/mL (≈ 0.106 µM).
